Measurements: paper PMC9906736, “Sodium-Dependent Neutral Amino Acid Transporter 2 Can Serve as a Tertiary Carrier for L-Type Amino Acid Transporter 1-Utilizing Prodrugs” (Molecular Pharmaceutics, 2023)
“Also recorded” adds a separate entry of the source.

What was measured:
MCF-7 cells = assay: Concentration-dependent cellular uptake into MCF-7 cells at various pH, with and without Na+; assay type: cell-based, human; conditions: for cellular uptake at pH 8.5 compared to pH 7.4 / cellular uptake at pH 8.5 in the absence of Na+ / cellular uptake at pH 5.5 compared to pH 7.4: 1–200 μM, 30 min; for cellular uptake at pH 8.5 in the absence of Na+: compared to presence of Na+; for Km: pH 8.5, read-out: Km(uM)@pH8.5
Method: MCF-7 human breast adenocarcinoma cells (HTB-22) were purchased from the American Type Culture Collection (ATCC, Manassas, VA, USA). MCF-7 cells were cultured in Dulbecco’s modified Eagle’s medium supplemented with L-glutamine (2.0 mM), heat-inactivated fetal bovine serum (10%), and penicillin (50 U/mL)–streptomycin (50 μg/mL) solution. MCF-7 cells (passages 8–25) were seeded at the density of 1 × 10^5 cells/well onto 24-well plates. The cells were used for the uptake experiments 1 day after seeding. All the studies were carried out as three biological replicates from the same cell passage.
For the following experiments, the MCF-7 cells were cultured, seeded, washed with HBSS, and preincubated as described above at the desired conditions (pH 5.5, 7.4, or 8.5, with and without Na^+). […] Subsequently, the cells were washed three times with ice-cold HBSS and lysed with 500 μL of 0.1 M NaOH (60 min). […] The cell-associated concentrations of each compound normalized to protein concentration were calculated from the standard curve that was prepared by spiking known concentrations of compounds to ACN including the selected internal standard (diclofenac to all studied compounds). The protein concentrations on each plate were determined as a mean of three samples by Bio-Rad Protein Assay based on the Bradford dye-binding method using BSA as a standard protein and measuring the absorbance (595 nm) by a multiplate reader (EnVision, PerkinElmer, Inc., Waltham, MA, USA).

SNATs [1] = assay: Competitive cellular uptake in the presence of unselective SNAT ligand MeAIB in MCF-7 cells; assay type: cell-based, human; conditions: 100 μM compound, 100 μM MeAIB, pH 7.4 or 8.5, 30 min
Method: The competitive uptake in the presence of unselective SNAT ligand, MeAIB (100 μM),[31],[32] was carried out as described above with HBSS buffer at pH 7.4 or pH 8.5 containing 100 μM of the studied compound. The cells were preincubated with the inhibitors for 10 min, and the incubation mixture was removed before adding the studied compound and the inhibitor to the cells. The competitive uptake (30 min) with the inhibitor was then carried out as the normal uptake described above. The concentrations of studied compounds were analyzed by the LC–MS/MS method and calculated from the spiked standard curve and normalized with the protein concentrations.

LAT1 [2] = conditions: cited from earlier work; for IC50: ability to compete with natural LAT1-substrate L-Leu, read-out: IC50 (μM) of [^14C]-L-Leu Uptake; for LAT1 Properties (in words): merged cell over IC50, CLint and Kp columns
LAT1 [3] = system: LAT1; parameters: unit not given here; conditions: CLint = Vmax/Km; cited from earlier work
[4] = brain accumulation; cited from earlier work
SNATs [5] = assay: Functionality of SNATs in MCF-7 cells with [3H]-L-proline uptake; assay type: cell-based, human; conditions: for inhibition of the uptake of [^3H]-L-proline: MeAIB 100 μM
Method: After removal of the culture medium, MCF-7 cells were carefully washed with prewarmed HBSS (Hank’s balanced salt solution) containing 125.0 mM NaCl (or choline chloride in Na^+-free conditions), 4.8 mM KCl, 1.2 mM MgSO4, 1.2 mM KH2PO4, 1.3 mM CaCl2, 5.6 mM glucose, and 25.0 mM 4-(2-hydroxyethyl)piperazine-1-ethanesulfonic acid (HEPES) with pH adjusted to either 7.4 or 8.5 with 1 M NaOH (or KOH in sodium-free conditions). In the experiments at lower pH (4.5–6.5), 25.0 mM HEPES was replaced by 2-(N-morpholino)ethanesulfonic acid (MES), and pH was adjusted to 4.5, 5.5, and 6.5 by 1.0 M NaOH. Preincubation was done with 500 μL of prewarmed HBSS at 37 °C for 10 min before adding substrates (250 μL in HBSS) for the uptake experiments. The functionality of SNATs in MCF-7 cells was studied with a known SNAT substrate; the cells were incubated either with [^3H]-L-proline [1 μM (PerkinElmer, Waltham, MA, USA) in uptake buffer HBSS, 250 μL] at 37 °C for 1–60 min or with the uptake buffer (250 μL) consisting of 1–600 μM L-proline (containing 2 μCi [^3H]-L-proline) at 37 °C for 60 min.[38] After incubation, the uptake was stopped by adding 500 μL of ice-cold HBSS, and the cells were washed two times with ice-cold HBSS (2 × 500 μL). The cells were then lysed with 500 μL of 0.1 M NaOH (60 min), and the lysate was mixed with 3.5 mL of Emulsifier safe cocktail (Ultima Gold, PerkinElmer, Waltham, MA, USA). The radioactivity in the cells was measured by liquid scintillation counting (MicroBeta^2 counter, PerkinElmer Waltham, MA, USA). The concentrations of [^3H]-L-proline were calculated from the spiked standard curve at each pH and normalized with the protein concentrations. The SNAT-mediated uptake was confirmed by changing the pH of the uptake buffer in the absence of sodium ions and in the presence of unselective SNAT-ligand, MeAIB (100 μM).[31],[32]

Row | Compound | cellular uptake at pH 8.5 compared to pH 7.4 (MCF-7 cells) | cellular uptake at pH 8.5 in the absence of Na+ (MCF-7 cells) | Km (MCF-7 cells) | cellular uptake in the presence of MeAIB (SNATs [1]) | IC50 (LAT1 [2]) | Intrinsic Clearance (CLint) of LAT1-mediated uptake (LAT1 [3]) | in vivo Kp values (AUCbrain/ AUCplasma) [4] | cellular uptake at pH 5.5 compared to pH 7.4 (MCF-7 cells) | further results
1 | COc1cc(/C=C/C(=O)NCc2cccc(C[C@H](N)C(=O)O)c2)ccc1O [Compound 8] | much higher | sodium-sensitive | 225 µM | decreased | 14.2 ± 0.91 µM | 0.3 | 0.052 | – | –
2 | CC(C(=O)NCC[C@H](N)C(=O)O)c1cccc(C(=O)c2ccccc2)c1 (some centres unmarked) [Compound 6] | decreased | – | 422 µM | decreased | 89.1 ± 4.19 µM | – | 0.317 | – | –
3 | CCCN(CCC)S(=O)(=O)c1ccc(C(=O)O)cc1 [PRB, probenecid, reference compound] | decreased | – | – | did not affect | – | – | – | increased | LAT1 Properties (in words) (LAT1 [2]): Not an LAT1 substrate
4 | COc1cc(/C=C/C(=O)Nc2cccc(C[C@H](N)C(=O)O)c2)ccc1O [Compound 7] | much higher | sodium-sensitive | 184 µM | decreased | 1.1 ± 0.08 µM | – | 0.082 | – | –
5 | CC(C(=O)NCc1cccc(C[C@H](N)C(=O)O)c1)c1cccc(C(=O)c2ccccc2)c1 (some centres unmarked) [Compound 4] | much higher | sodium-sensitive | 40 µM | decreased | 0.12 ± 0.01 µM | 4.5 | 0.017 | – | –
6 | CC(C(=O)Nc1ccc(C[C@H](N)C(=O)O)cc1)c1cccc(C(=O)c2ccccc2)c1 (some centres unmarked) [Compound 3] | higher | increased | 131 µM | decreased | 51.16 ± 0.1 µM | 8.3 | 0.050 | higher | –
7 | CC(C(=O)Nc1cccc(C[C@H](N)C(=O)O)c1)c1cccc(C(=O)c2ccccc2)c1 (some centres unmarked) [Compound 2] | did not affect | did not affect | 291 µM | did not affect | 0.54 ± 0.05 µM | 11.2 | 0.045 | did not affect | –
8 | CC(C(=O)NCCCC[C@H](N)C(=O)O)c1cccc(C(=O)c2ccccc2)c1 (some centres unmarked) [Compound 5] | much higher | sodium-sensitive | 102 µM | decreased | 82.7 ± 1.45 µM | 1.3 | 0.022 | – | –
9 | N[C@@H](Cc1cc(I)c(Oc2cc(I)c(O)c(I)c2)c(I)c1)C(=O)O [T4, thyroxin, reference compound] | decreased | – | – | decreased | 18 ± 1.41 µM | 5.5 | – | increased | –
10 | N[C@@H](Cc1c[nH]c2ccccc12)C(=O)O [L-Trp, reference compound] | did not affect | did not affect | – | did not affect | 50.5 ± 2.63 µM | 146 | – | did not affect | –
11 | CNC(C)(C)C(=O)O [MeAIB, α-(methylamino)isobutyric acid] | – | – | – | – | – | – | – | – | inhibition of the uptake of [^3H]-L-proline (SNATs [5]; [^3H]-L-proline 25 μM): negligible; inhibition of the uptake of [^3H]-L-proline (SNATs [5]; [^3H]-L-proline 50 and 100 μM): able to inhibit; LAT1 Properties (in words) (LAT1 [2]): Not an LAT1 substrate
12 | N[C@@H](Cc1cccc(C(=O)OCc2ccc(-c3ccc(-c4ccc5c(c4)COC5=O)s3)cc2)c1)C(=O)O [Compound 1] | much higher | decreased; also recorded: sodium-sensitive | 412 µM | decreased | 1.54 ± 0.05 µM | 47.1 | 0.043 | – | Vmax of cellular uptake (MCF-7 cells; pH 5.5): 29 nmol/min/mg protein; cellular uptake, times higher at pH 5.5 compared to pH 7.4 (MCF-7 cells; ratio of Vmax): 3.9 times; cellular uptake, times higher at pH 8.5 compared to pH 7.4 (MCF-7 cells; ratio of Vmax): 9.3 times
13 | O=C(O)[C@@H]1CCCN1 [[^3H]-L-proline] | – | – | – | – | – | – | – | – | Km (SNATs [5]; MCF-7 cells, 10–600 μM, 60 min): 1470 ± 257 µM; Vmax of [^3H]-L-proline uptake (SNATs [5]; MCF-7 cells, 10–600 μM, 60 min): 1.13 ± 0.15 nmol/min/mg protein; pH dependency of uptake (SNATs [5]; MCF-7 cells, pH 4.5–8.5 in the presence of Na+): significant pH dependency; uptake in the absence of sodium (SNATs [5]; MCF-7 cells, pH 7.4): significantly reduced
